Data on six compounds can be found in paper PMC6479981, “Design, Synthesis, and In Vitro Biological Activities of a Bio-Oxidizable Prodrug to Deliver Both ChEs and DYRK1A Inhibitors for AD Therapy” (Molecules, 2019).

Molecules are shown by their SMILES. Where two headings read alike, the source gives them in different places.

Data set [1] concerns the target T1, hAChE (Homo sapiens, UniProt P22303).
T1 construct: purchased Aldrich
Put plainly: biochemical. The format is biochemical. On the procedure:
(§1) Inhibitory capacity of compounds on hAChE and hBuChE biological activity was evaluated through the use of Ellman’s spectrometric method. Acetylthiocholine iodide (ATCI), […] (BTCI) and 5,5-dithiobis-(2-nitrobenzoic) acid (DTNB) were purchased from Sigma Aldrich. Lyophilized hAChE and hBuChE were purchased from Aldrich, and were diluted in phosphate buffer (pH 8) so as to give an enzyme solution with 0.25 units/mL enzyme activity. In the procedure, 100 μL of 0.3 mM DTNB dissolved in phosphate buffer pH 7.4 were added into the 96 well plate, followed by 50 μL of the tested compound solution and 50 μL of enzyme solution. After 5 min of preincubation, the reaction was then initiated by the injection of 50 μL of 10 mM ATCI or BTCI solution. […] All assays were performed in duplicate, and IC50 values were determined graphically from 8 points inhibition curves using the Prism® software.

In data set [2] the target is T2, hBuChE (Homo sapiens, UniProt P06276).
T2 construct: purchased Aldrich
Put plainly: biochemical. The format is biochemical. As to the method: as §1

A further data set deals with T3, human recombinant DYRK1A (Homo sapiens, UniProt Q13627).
T3 construct: Eurofins Pharma Discovery (ran the assay)
Put plainly: biochemical. The settings on record: for inhibition at 1 µM: read-out: DYRK1a Inhibition (%). On the procedure:
Evaluation of the effects of compounds on the activity of the human recombinant DYRK1A was made using the LANCE® detection method, and was quantified by measuring the phosphorylation of Ulight-[…]-amide (MBP). The assays were conducted by Eurofins Pharma Discovery in Bois l’Evêque, France. […] Next, 100 nM of Ulight-[…]-amide (MBP) and 10 µM ATP were added to initiate the reaction, and the mixture was incubated for 30 min at 25 °C. A blank without enzyme was also performed for control basal measurements. The experiment was stopped by addition of 13 mM EDTA, followed by the addition of the anti-phospho-MBP antibody labeled with europium chelate after 5 min. […] Outputs are expressed as a percentage of inhibition of the control DYRK1A activity.

Data set [3] has as its target T4, peripheral binding site of eeAChE (Electrophorus electricus, UniProt O42275).
T4 construct: purchased Aldrich
Put plainly: Propidium iodide displacement (competition) assay. As to the method: The assays were performed at the Centre d’Etudes et de Recherche sur le Médicament de Normandie (CERMN) in Caen, France. […] Fluorescence intensity was monitored using a microplate reader. […] Each assay was performed in triplicate.

Data set [4] can be described thus: PAMPA-BBB permeability assay. To be noted: pH 7.4, 4 h, room temperature. The format is in vitro ADME. As to the method:
Assays were performed at the Centre d’Etudes et de Recherche sur le Médicament de Normandie (CERMN) in Caen, France. These assays were realized according to the methodology developed by PION, by means of the Pampa-BBB Explorer™ system. This system allows the measurement of the crossing velocity of a compound from one compartment to another through an artificial membrane at pH = 7.4. The experiment was replicated 6 times in 4 h, with quantification by UV-spectra reading. The result is given in Pe [cm·s^−1], and an interpretation by comparison with standard compounds is proposed. The studied compounds were diluted at 20 mM in DMSO, then diluted at […] in Prisma HT Buffer pH 7.4 (pION). 200 µL of this solution was placed in the wells of the donor plate. 5 μL of BBB-1 Lipid was placed in the filters of the acceptor plate. 200 µL of Brain Sink Buffer was added in the wells of the acceptor plate. The sandwich was then assembled and incubated for 4 h at room temperature, without stirring. The sandwich was then separated and the UV-vis spectra of the donor and acceptor compartments were determined with the plate reader (Tecan infinite M200, Männedorf, Switzerland). Pe were calculated with the PAMPA Explorer software v.3.7 (pION Inc, Billerica, MA, USA). Standard compounds used were corticosterone and theophylline.

In data set [5] the target is T1, hAChE. Put plainly: Time-dependent (stopped time) kinetic study of hAChE inhibition. The format is biochemical. As to the method:
(§2) To support the assumption of the pseudo-irreversible inhibition mechanism of both ChEs by compound 14, kinetic studies were also performed using stopped time assays at different concentrations of ligand 14. […] Using a nonlinear regression fitting analysis, the pseudo-first-order inhibition rate constant (kobs) for each concentration of 14 was obtained and the equilibrium constant (Kc) and the carbamoylation rate constant (k3) was determined by the reported method.
(§3) For the time-dependent experiments, assays were performed using a 96 well microplate reader to a final volume of 250 μL, a final enzyme concentration of 0.05 U·mL^−1 and an ATCI (or BTCI) and DNTB concentrations of 0.3 and 0.5 mM respectively in phosphate buffer (pH 8). At the starting time (t0), the inhibitor at various concentration (150 μL) was added to an equivalent volume of hAChE (or hBuChE). The mixture was then incubated at 37 °C and, at different time points, 50 μL aliquots were transferred to wells containing a solution of ATCI (or BTCI) and DTNB in phosphate buffer (200 μL) and the activity was determined by measuring the changes in absorbance at 412 nm every minute for 10 min. Blank experiments were also performed without inhibitor. The first order inhibition constant kobs was determined for all inhibitor concentrations using a nonlinear regression. Data were fitted with the equation, A = A0 exp(−kobs·t) + A∞ with A, A0, A∞ being ratios of the inhibited enzyme activity to the control activity at time t, 0, and ∞. Double reciprocal plots of kobs versus the inhibitor concentration were made to determine the equilibrium constant Kc and the carbamoylation rate constant k3, following the described method.

In data set [6] the target is T2, hBuChE. Put plainly: Time-dependent (stopped time) kinetic study of hBuChE inhibition. The format is biochemical. On the procedure: as §2, §3
Setting [7] is: mean value of duplicate, 5 min preincubation, read-out: IC50 hAChE.
[8] abbreviates: mean value of duplicate, 5 min preincubation, read-out: IC50 hBuChE.
Setting [9] is: at 1 μM compound, 10 μM ATP concentration, mean value of duplicate.

T1 sequence (P22303 32-614): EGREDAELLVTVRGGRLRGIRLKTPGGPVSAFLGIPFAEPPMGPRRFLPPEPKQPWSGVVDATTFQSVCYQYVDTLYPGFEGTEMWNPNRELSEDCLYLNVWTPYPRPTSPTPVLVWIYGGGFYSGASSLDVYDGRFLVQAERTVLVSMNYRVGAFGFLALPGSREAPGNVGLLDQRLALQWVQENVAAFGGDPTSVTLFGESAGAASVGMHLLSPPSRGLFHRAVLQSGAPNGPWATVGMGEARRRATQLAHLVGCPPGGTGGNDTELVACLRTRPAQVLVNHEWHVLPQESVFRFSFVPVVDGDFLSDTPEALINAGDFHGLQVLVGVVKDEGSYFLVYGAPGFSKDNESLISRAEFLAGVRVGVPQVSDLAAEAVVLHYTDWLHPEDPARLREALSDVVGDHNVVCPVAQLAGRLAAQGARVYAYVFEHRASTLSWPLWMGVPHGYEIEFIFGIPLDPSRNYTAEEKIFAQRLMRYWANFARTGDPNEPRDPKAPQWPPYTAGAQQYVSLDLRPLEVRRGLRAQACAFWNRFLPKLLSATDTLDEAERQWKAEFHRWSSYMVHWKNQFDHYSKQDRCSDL
T2 sequence (P06276 29-602): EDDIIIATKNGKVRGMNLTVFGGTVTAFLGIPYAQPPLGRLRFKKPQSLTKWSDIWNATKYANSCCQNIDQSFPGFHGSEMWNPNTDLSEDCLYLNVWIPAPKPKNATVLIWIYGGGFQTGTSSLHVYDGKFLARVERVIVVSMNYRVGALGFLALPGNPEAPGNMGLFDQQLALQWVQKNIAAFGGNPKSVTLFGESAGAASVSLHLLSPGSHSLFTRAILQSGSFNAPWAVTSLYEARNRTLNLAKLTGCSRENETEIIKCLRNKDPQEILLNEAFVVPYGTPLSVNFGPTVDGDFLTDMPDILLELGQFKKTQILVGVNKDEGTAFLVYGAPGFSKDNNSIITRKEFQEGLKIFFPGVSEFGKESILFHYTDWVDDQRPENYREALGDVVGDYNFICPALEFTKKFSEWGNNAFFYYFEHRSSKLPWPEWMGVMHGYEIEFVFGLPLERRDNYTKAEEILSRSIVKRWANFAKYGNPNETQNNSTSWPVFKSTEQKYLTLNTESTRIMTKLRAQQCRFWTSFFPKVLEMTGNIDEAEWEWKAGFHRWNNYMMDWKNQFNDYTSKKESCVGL
T4 sequence (O42275 24-633): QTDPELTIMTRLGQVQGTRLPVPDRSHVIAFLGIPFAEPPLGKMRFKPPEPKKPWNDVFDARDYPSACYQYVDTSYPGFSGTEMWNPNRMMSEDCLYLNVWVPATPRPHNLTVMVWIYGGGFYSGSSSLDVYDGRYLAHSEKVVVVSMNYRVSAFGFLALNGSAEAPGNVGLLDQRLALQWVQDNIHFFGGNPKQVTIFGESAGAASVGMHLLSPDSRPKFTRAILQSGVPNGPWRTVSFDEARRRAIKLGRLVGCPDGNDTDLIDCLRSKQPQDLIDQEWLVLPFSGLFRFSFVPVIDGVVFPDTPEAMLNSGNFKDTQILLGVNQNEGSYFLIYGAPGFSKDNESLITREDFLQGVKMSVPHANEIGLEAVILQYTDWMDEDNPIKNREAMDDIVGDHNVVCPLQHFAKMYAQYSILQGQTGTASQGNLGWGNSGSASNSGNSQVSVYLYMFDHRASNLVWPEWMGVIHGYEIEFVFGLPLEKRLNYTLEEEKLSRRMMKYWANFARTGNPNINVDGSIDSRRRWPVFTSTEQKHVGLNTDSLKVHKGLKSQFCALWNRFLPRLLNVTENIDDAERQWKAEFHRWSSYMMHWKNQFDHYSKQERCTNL

Turning to `CCN1/C(=C/C(C)=O)Sc2ccc(O)cc21` [Indy, reference compound], the IC50 at hAChE [1] (setting [7]) and on hBuChE [2] (setting [8]) was over 10000 nM throughout.

For the compound `CN(C)C(=O)Oc1cccc2c1cc(C(=O)NCCO)c[n+]2C` [2a, reference compound], the results for the IC50 against hAChE [1] and on hBuChE [2] were 37.1 ± 0.1 nM and 1440 ± 286 nM, respectively. On human recombinant DYRK1A, the inhibition (as a rule, the percentage by which the read-out fell short of the control) at 1 µM turned out to be 0%.

`CCN1/C(=C/C(C)=O)Sc2ccc(OC(=O)OCCOCCNC(=O)C3=CN(C)c4cccc(OC(=O)N(C)C)c4C3)cc21` [compound 4, (Z)-3-((2-(2-((((3-Ethyl-2-(2-oxopropylidene)-2,3-dihydrobenzo[d]thiazol-5-yl)oxy)carbonyl)oxy)ethoxy)ethyl)carbamoyl)-1-methyl-1,4-dihydroquinolin-5-yl dimethylcarbamate]: the IC50 (commonly the concentration that gives 50% inhibition) is 1020 ± 72.1 nM against hAChE [1] and 961 ± 22 nM against hBuChE [2]. Moreover, at human recombinant DYRK1A, the inhibition at 1 µM came to 8%. For the same compound, in data set [3] (read-out: Propidium Iodide Displacement Inhibition (%)), the inhibition at 10 µM came out at 4 ± 2%. In data set [4] (PAMPA, read-out: Pe (PAMPA BBB, passive diffusion)), the Papp at 4 h is 2.41 ×10⁻⁶ cm/s.

As for `CCN1/C(=C/C(C)=O)Sc2ccc(OC(=O)OCCOCCNC(=O)c3cc4c(OC(=O)N(C)C)cccc4[n+](C)c3)cc21.COS(=O)(=O)[O-]` [compound 14, (Z)-5-((Dimethylcarbamoyl)oxy)-3-((2-(2-((((3-ethyl-2-(2-oxopropylidene)-2,3-dihydrobenzo[d]thiazol-5-yl)oxy)carbonyl)oxy)ethoxy)ethyl)carbamoyl)-1-methylquinolin-1-ium methyl sulfate], the IC50 at hAChE [1] (setting [7]) amounted to 81.4 ± 0.4 nM; on hBuChE [2] (setting [8]), 482 ± 21 nM. For the same compound, the “DYRK1a Inhibition (%)” value on human recombinant DYRK1A (setting [9]) is listed as 5%. Besides, the “Propidium Iodide Displacement Inhibition (%)” value in data set [3] (compound 10^−5 M, eeAChE, propidium iodide 1 μM, mean value of triplicate) was found to be 26 ± 1%. For the same compound, the “Pe (PAMPA BBB, passive diffusion)” value in data set [4] worked out at 0 ×10⁻⁶ cm/s. For the same compound, the “carbamoylation rate constant k3” value came to 0.408 min⁻¹ at hAChE [5] and 0.574 min⁻¹ on hBuChE [6] (hBChE). The “second order rate constant Ki (k3/Kc), carbamylation efficacy” value at hAChE [5] was 29700 M⁻¹ s⁻¹; at hBuChE [6] (hBuChE) it was 14500 M⁻¹ s⁻¹. Besides, the Kd on hAChE [5] (37 °C, double reciprocal plot of kobs vs inhibitor concentration, read-out: equilibrium constant Kc) stood at 230 nM; at hBuChE [6] (hBChE, 37 °C, double reciprocal plot of kobs vs inhibitor concentration, read-out: equilibrium constant Kc) it was 659 nM.

For the compound `CCN1/C(=C/C(C)=O)Sc2ccc(OC(=O)OCCOCCNC(=O)c3cc4ccccc4[n+](C)c3)cc21.COS(=O)(=O)[O-]` [compound 15, (Z)-3-((2-(2-((((3-Ethyl-2-(2-oxopropylidene)-2,3-dihydrobenzo[d]thiazol-5-yl)oxy)carbonyl)oxy)ethoxy)ethyl)carbamoyl)-1-methylquinolin-1-ium methyl sulfate], the “inhibitory activity against hAChE (in words)” value against hAChE [1] is “did not show any significant inhibitory activity”. Further, the values for the IC50 on hAChE [1] (setting [7]) and on hBuChE [2] (setting [8]) were over 10000 nM and 6400 ± 714 nM, respectively. The “inhibitory activity against hBuChE (in words)” value on hBuChE [2] is reported as “did not show any significant inhibitory activity”. The “DYRK1a Inhibition (%)” value on human recombinant DYRK1A (setting [9]) turned out to be 6%.

Turning to `CCN1/C(=C/C(C)=O)Sc2ccc(OC(=O)OCCOCCNC(=O)C3=CN(C)c4ccccc4C3)cc21` [compound 16, (Z)-3-Ethyl-2-(2-oxopropylidene)-2,3-dihydrobenzo[d]thiazol-5-yl (2-(2-(1-methyl-1,4-dihydroquinoline-3-carboxamido)ethoxy)ethyl) carbonate], the IC50 at hAChE [1] (setting [7]) and at hBuChE [2] (setting [8]) was over 10000 nM throughout. Moreover, the inhibition at 1 µM on human recombinant DYRK1A (setting [9]) worked out at 7%.
